One block for each compound: values may come before it.
Key:
[1] = molecular target: T1, Serine/threonine-protein kinase D3 (Homo sapiens) (UniProt O94806); test: Selectivity interaction (KinomeScan (DiscoverX)) EUB0000666a PRKD3; settings: at 10 µM
T1 sequence (whole entry): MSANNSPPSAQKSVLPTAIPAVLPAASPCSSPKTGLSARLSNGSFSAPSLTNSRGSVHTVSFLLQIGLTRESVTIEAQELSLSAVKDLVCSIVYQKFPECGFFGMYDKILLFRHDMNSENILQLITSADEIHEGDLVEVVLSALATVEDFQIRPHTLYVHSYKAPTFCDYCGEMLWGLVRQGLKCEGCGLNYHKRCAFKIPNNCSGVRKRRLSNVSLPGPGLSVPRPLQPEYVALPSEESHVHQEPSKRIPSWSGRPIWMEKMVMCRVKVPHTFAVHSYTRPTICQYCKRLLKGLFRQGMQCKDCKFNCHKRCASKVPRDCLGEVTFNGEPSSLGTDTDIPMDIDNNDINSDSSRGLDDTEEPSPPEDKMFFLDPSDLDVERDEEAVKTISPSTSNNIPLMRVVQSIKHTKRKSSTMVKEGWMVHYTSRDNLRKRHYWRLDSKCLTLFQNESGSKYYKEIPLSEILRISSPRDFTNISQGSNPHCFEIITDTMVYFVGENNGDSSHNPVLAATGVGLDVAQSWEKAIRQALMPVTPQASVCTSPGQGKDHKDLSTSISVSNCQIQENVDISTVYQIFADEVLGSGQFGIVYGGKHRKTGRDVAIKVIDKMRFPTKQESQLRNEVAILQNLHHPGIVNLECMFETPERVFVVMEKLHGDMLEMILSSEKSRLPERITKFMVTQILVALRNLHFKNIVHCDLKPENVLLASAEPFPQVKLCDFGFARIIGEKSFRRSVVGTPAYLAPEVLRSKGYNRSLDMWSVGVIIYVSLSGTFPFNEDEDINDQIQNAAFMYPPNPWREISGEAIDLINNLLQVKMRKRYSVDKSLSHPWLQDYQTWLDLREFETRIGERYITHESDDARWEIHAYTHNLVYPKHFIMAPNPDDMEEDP

[2] = molecular target: T2, Mitogen-activated protein kinase 15 (Homo sapiens) (UniProt Q8TD08); test: Selectivity interaction (KinomeScan (DiscoverX)) EUB0000666a MAPK15; settings: at 10 µM
T2 sequence (whole entry): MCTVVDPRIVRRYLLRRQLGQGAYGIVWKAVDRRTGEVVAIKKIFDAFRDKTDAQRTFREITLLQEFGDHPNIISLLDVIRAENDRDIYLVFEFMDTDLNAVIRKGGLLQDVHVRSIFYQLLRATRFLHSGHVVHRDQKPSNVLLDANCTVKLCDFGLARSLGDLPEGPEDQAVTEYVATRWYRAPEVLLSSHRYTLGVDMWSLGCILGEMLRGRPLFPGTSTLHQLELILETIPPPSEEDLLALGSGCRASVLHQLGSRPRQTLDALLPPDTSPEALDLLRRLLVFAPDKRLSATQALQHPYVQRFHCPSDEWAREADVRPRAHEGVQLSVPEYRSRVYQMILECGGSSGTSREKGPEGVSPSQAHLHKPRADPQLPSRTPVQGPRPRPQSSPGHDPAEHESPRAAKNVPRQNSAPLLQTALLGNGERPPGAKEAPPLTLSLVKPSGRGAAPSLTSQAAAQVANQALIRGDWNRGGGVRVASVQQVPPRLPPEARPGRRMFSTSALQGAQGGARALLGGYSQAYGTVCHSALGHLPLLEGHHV

[3] = molecular target: Mitogen-activated protein kinase 11 (Homo sapiens) (UniProt Q15759); test: Selectivity interaction (ActivX KiNativ screen (kinase selectivity in THP-1 cell lysates)) EUB0000639a MAPK11; type: subcellular; settings: lysate
[4] = molecular target: Serine/threonine-protein kinase SBK1 (Homo sapiens) (UniProt Q52WX2); test: Selectivity interaction (KinomeScan (DiscoverX)) EUB0000595a SBK1; settings: at 10 µM
[5] = molecular target: Tyrosine-protein kinase Fyn (Homo sapiens) (UniProt P06241); settings: at 10 µM
[6] = molecular target: T3, Serine/threonine-protein kinase LATS2 (Homo sapiens) (UniProt Q9NRM7); test: Selectivity interaction (KinomeScan (DiscoverX)) EUB0000618a LATS2; settings: at 10 µM
T3 sequence (whole entry): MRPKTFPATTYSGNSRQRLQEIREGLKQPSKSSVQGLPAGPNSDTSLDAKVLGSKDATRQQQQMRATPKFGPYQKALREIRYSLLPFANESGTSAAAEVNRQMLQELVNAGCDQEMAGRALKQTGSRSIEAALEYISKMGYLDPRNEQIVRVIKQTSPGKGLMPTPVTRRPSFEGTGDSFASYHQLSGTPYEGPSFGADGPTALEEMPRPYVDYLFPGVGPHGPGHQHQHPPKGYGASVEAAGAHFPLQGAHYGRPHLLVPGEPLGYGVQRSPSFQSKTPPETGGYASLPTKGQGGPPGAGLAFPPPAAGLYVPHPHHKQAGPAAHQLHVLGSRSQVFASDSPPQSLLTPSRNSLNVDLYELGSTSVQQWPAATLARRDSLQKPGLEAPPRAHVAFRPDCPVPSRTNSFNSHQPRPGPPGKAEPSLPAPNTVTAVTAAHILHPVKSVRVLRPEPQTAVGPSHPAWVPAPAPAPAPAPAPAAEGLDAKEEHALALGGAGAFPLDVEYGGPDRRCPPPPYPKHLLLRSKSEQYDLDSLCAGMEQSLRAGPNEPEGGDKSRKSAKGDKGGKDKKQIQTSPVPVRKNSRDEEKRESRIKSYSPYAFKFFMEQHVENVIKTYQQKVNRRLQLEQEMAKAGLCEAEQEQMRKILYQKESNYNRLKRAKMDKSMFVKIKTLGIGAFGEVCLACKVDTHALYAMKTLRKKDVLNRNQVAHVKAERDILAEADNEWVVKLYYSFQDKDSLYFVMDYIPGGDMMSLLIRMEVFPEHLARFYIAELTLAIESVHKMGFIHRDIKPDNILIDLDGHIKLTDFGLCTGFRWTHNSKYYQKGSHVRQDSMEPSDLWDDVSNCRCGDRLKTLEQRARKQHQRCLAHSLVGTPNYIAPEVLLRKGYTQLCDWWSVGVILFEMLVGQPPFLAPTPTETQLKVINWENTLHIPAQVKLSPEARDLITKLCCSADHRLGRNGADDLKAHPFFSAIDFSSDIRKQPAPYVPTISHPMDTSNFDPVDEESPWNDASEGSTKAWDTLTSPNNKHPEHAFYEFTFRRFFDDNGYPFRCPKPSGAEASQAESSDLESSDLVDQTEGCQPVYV

Mitogen-activated protein kinase 11 (Homo sapiens), sequence (Q15759 whole entry): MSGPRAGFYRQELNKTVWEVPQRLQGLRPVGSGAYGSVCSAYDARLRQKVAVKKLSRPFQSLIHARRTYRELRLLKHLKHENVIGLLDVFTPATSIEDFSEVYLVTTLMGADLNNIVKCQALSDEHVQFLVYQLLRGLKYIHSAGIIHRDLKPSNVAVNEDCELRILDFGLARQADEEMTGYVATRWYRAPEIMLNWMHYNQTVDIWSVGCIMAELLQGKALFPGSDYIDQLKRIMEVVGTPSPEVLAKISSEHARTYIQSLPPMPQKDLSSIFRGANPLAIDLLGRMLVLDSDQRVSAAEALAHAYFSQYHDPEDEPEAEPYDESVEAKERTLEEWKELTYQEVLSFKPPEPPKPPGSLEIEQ
Serine/threonine-protein kinase SBK1 (Homo sapiens), sequence (Q52WX2 whole entry): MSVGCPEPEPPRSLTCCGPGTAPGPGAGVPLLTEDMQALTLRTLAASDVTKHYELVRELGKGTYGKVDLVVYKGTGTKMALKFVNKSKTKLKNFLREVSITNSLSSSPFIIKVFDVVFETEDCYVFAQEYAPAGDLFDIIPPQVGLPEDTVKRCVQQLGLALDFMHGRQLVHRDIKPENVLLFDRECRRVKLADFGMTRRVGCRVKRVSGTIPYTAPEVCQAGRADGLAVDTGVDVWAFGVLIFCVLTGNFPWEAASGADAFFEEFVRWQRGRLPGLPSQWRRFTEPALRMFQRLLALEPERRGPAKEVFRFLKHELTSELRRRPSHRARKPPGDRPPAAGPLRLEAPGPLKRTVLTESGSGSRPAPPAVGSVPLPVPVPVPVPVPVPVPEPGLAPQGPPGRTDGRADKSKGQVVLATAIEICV
Tyrosine-protein kinase Fyn (Homo sapiens), sequence (P06241 2-537 limits assumed): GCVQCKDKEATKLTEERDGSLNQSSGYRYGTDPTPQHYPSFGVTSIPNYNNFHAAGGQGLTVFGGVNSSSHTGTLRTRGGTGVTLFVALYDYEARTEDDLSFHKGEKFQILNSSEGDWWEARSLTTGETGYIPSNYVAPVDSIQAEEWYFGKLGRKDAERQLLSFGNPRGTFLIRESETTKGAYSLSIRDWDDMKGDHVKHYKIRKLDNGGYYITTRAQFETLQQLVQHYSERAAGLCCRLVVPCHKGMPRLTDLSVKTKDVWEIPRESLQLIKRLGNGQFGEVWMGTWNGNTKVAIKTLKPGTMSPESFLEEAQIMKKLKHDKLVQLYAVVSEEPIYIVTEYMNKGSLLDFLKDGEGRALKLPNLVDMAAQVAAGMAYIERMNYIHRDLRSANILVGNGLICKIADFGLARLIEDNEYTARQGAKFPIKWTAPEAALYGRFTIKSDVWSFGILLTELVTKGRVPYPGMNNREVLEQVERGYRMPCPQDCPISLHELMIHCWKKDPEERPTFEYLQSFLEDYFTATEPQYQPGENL

Compound: O=C(NOC[C@H](O)CO)c1ccc(F)c(F)c1Nc1ccc(I)cc1F
- % of control [1]: 70%
- % of control [2]: 100%

- % of inhibition ([3]; at 0.01 µM): -7.8%
- % of inhibition ([3]; at 0.04 µM): -35.7%
- % of inhibition ([3]; at 0.2 µM): -16.6%
- % of inhibition ([3]; at 1 µM): -3.6%
- % of inhibition ([3]; at 5 µM): -19.3%
Compound: CC[C@@H]1[C@H](F)C(=O)N[C@@H]1COc1nccc2cc(C(N)=O)c(OC)cc12 [ZIMLOVISERTIB]

Compound: COCC(=O)NC/C=C/c1ccc2ncnc(Nc3ccc(Oc4ccc(C)nc4)c(C)c3)c2c1 [CP-724714]
- % of control [4]: 100%

Compound: Cc1cc([C@@H](C)Nc2ccccc2C(=O)O)c2nc(N3CCOCC3)cc(=O)n2c1 [AZD-6482]
- % of control [5]: 100%

Compound: O[C@H]1CC[C@H](Nc2ncc3nc(Nc4c(F)cc(F)cc4F)n([C@H]4CCOC4)c3n2)CC1
- % of control [6]: 88%

— ChEMBL document CHEMBL5465560, “Selectivity Literature for EUbOPEN Chemogenomic Library” (2024)
